According to patent US20250120971A1, “NOVEL DRUG TREATMENT OF COGNITIVE IMPAIRMENTS ASSOCIATED WITH SCHIZOPHRENIA” (FLORIDA ATLANTIC UNIVERSITY BOARD OF TRUSTEES, priority 2021, published 2025):
“Also recorded” adds a separate entry of the source.

Columns and labels:
[1] = system: rat model of repeated stress; conditions: cited from earlier work
[2] = system: KET mouse model of psychosis; assay: Trace fear conditioning and tone test; format: in vivo; conditions: for discrimination ratio of % freezing (trace vs CS intervals) (Mdn): CyPPA 15.0 mg/kg IP 30 min before trace fear conditioning
Method: Systemic Administration of the SK2 Activator. Two groups of KET mice and two groups of SAL mice were randomly assigned to receive either VEH or CyPPA (15.0 mg/kg) IP 30 min prior to a trace fear conditioning session.
Trace fear conditioning was performed using a MED Associates Near-Infrared Video Fear Conditioning System (Georgia, VT) composed of four identical rectangular conditioning chambers (30.5 cm by 24.1 cm by 21 cm) constructed of brushed aluminum side walls and clear Plexiglas front, back and top walls. Each chamber was illuminated by an overhead white house light and an infrared light. An audio speaker attached to the right-side wall of each chamber delivered the tone stimuli. The chamber floor was constructed of parallel stainless-steel rods (36 rods, 3.2 mm dia, 7.9 mm apart) designed for mice, and connected to a scrambled shock generator. Each conditioning chamber was housed inside a larger sound-attenuating cabinet with a ventilation fan in the right-side wall used to provide background noise. A near-infrared FireWire video camera, mounted on the left front door of each noise-attenuating cabinet, was used to acquire mouse behavior. Before each trial, the chamber floors were cleaned thoroughly with a 70% ethanol solution, then with 1% LiquiNox (White Plains, New York) to reduce olfactory cues.
Freezing responses were recorded and automatically scored during the conditioning session to assess the strength of fear memory. The automatic software program operationally defined freezing as the duration of time, greater than 0.6 s, during which fewer than 20 pixels of each video frame were detected to have changed. […] All final freezing responses were hand scored to ensure accuracy.
Trace Fear Conditioning Session. Mice received a systemic injection of CyPPA or VEH and then were placed individually into empty holding cages. Thirty min later, mice were placed individually into a distinct conditioning chamber with an odor cue. […] (FIG. 4A). Mice were removed from the chamber 60 s. after the presentation of the 8th US.
Trace Fear Memory Tone Test. To assess retention of trace fear memory after a 24-hour delay, mice received a mock IP injection before being placed in the polycarbonate cage. After 30 min, mice were placed into modified conditioning chambers and after a 60 s. delay, were presented with the identical tone CS as in the conditioning session. […] Mice were removed 30 s. after termination of the last CS. The context of chamber was modified before the tone test by installing an inverted V-shaped Plexiglas insert to change the geometry of the side walls and ceiling, a floor shield, 1% acetic acid, and lighting filter.
Statistical Analysis. […] To examine whether KET differentially influenced the perception of the aversive foot shock stimulus, an activity burst ratio was computed for each mouse by dividing the motion score for the first shock interval, 1 s, +1 s. post shock by the motion score for a 2-s interval from the initial 60 s. of the conditioning session (Mean shock/mean no shock). A two-factor (group, treatment) ANOVA, or one-way if not normally distributed, was conducted to analyze treatment differences in the mean activity burst.
Trace fear conditioning involves the imposition of a temporal gap between the termination of the CS and the onset of the aversive US stimulus. […] The strength and accuracy of this temporally guided fear memory can then be assessed during a test session, often presented 24 hours after trace conditioning. […]

[3] = system: KET mouse model of psychosis or schizophrenia-like behavior; assay: Object recognition memory task after systemic (IP) SK channel activator; format: in vivo, mouse (male C57BL/6J); conditions: for discrimination ratio score, test session (Mdn): CyPPA 15.0 mg/kg IP 30 min pre-sample
Method: SK Drug Administration. To test the effect of the SK2 specific activator, CyPPA on long-term memory for objects, two KET groups and two SAL groups of male C57BL/6J mice were randomly assigned to receive either VEH or CyPPA (15.0 mg/kg) IP 30 min prior to the sample session of an object recognition memory task. Separate groups received CyPPA (7.5 mg/kg) IP or VEH 30 min prior to the sample session.
Arena Habituation. Mice were habituated to the arena prior to testing recognition memory. Thirty minutes prior to each arena habituation (AH) session, each mouse was restrained gently and momentarily, given a mock IP injection with a 26-gauge needle, and then placed into an empty polycarbonate cage. […] Afterwards, each mouse was returned to the polycarbonate cage and then returned to its home cage. Activity was recorded and automatically scored using Noldus Ethovision XT (version 7.0). Distance traveled was defined as the sum of recorded movement of the center point of the mouse in cm over the duration of the trial. Movement data from the AH sessions was used to match future treatment groups.
Sample Session. To examine the efficacy of activating SK channels on hippocampal long-term memory in the KET model of schizophrenia or psychosis-like cognitive deficits, an SK channel activator or vehicle (VEH, i.e., placebo) was administered to cohorts of saline (SAL) control mice or ketamine (KET)-exposed mice prior to the sample session of an object recognition task. Ten days after the final SAL or KET injection, mice received an IP injection of a SK channel activator or VEH, and then were placed individually in polycarbonate holding cages. Following a delay, the mouse was placed individually into the familiar arena for 10 min. Mice were permitted to freely explore two identical novel objects that were placed in opposite corners within the arena. […] The arena and objects were wiped down with 70% ethanol before each session to eliminate any odor cues that were present. Object exploration was defined as time (in s) that the mouse spent with its head oriented toward and within 2-3 cm of the object. The sample session ended after 10 min; at which time the mouse was returned to its home cage. Sample session behavior was video tracked via Ethovision XT and recordings were analyzed off-line to determine object exploration times for each mouse.
Test Session. Twenty-four hours following the sample session, mice were placed in a polycarbonate cage and then given a 10-min test session in the same arena as the sample session. Each mouse received a needle prick to simulate an IP injection before being placed in the polycarbonate holding cage for 30 min. For the test session, one of the previously encountered objects was replaced with a novel one (e.g., A, B, or C), as described above. To avoid place preference confounding behavioral responses, the objects were randomly replaced for the test session. The arena and objects were wiped down with 70% ethanol before each session to eliminate any odor cues that might affect behavioral responses during the test session.
Statistical Analysis. Object exploration was determined for each mouse based on the manual scoring of behavior from the recorded video files of the sample and test sessions. Scoring was done by experimenters who were blind to the treatment and group of the mice. Object memory was inferred from discrimination ratio scores, calculated for each mouse as the difference in time spent exploring the novel object minus the time spent exploring the familiar object, divided by the total time spent exploring both test objects (TNovel object−TFamiliar object/TNovel object+TFamiliar object). Discrimination ratio scores range from 1 to −1, with ratios greater than zero indicating preferential exploration of the novel object, and ratios less than zero indicating preferential exploration of the familiar object.

[4] = system: KET mouse model of psychosis; assay: Object recognition memory task after intrahippocampal (CA1) microinfusion; format: in vivo; conditions: KET mice; CyPPA 1 μg/μl bilateral intra-CA1 pre-sample; test 24 h later

| Compound | fear memory impairments [1] | performance during the tone test (retrieval) as stated in the Conclusions ([2]; KET mice given CyPPA vs KET mice given VEH) | discrimination ratio of % freezing (trace vs CS intervals) (Mdn) ([2]; KET mice) | temporal memory / attention in trace fear conditioning vs KET mice given VEH ([2]; KET mice, CyPPA 15.0 mg/kg IP 30 min pre-conditioning) | discrimination ratio of % freezing (trace vs CS intervals) (Mdn) ([2]; SAL mice) | conditioned freezing response vs SAL mice given VEH ([2]; SAL mice, CyPPA 15.0 mg/kg IP pre-conditioning) | discrimination ratio, test session (Mdn) ([3]; KET mice, CyPPA 7.5 mg/kg IP 30 min pre-sample, test 24 h later) | object recognition memory vs KET mice given VEH ([3]; KET mice, CyPPA 7.5 mg/kg IP pre-sample, test 24 h later) | discrimination ratio score, test session (Mdn) ([3]; KET mice, test 24 h later) | object recognition memory vs KET mice given VEH ([3]; KET mice, CyPPA 15.0 mg/kg IP pre-sample, test 24 h later) | discrimination ratio score, test session (Mdn) ([3]; SAL control mice, test 24 h later) | object memory vs SAL mice given VEH ([3]; SAL control mice, CyPPA 15.0 mg/kg IP pre-sample) | discrimination ratio score, test session (M) [4] | discrimination ratio, test session (Mdn) [4] | object recognition memory vs KET/VEH [4] |
| --- | --- | --- | --- | --- | --- | --- | --- | --- | --- | --- | --- | --- | --- | --- | --- |
| CCn1c(=O)[nH]c2ccccc21 [1-EBIO] | alleviated fear memory impairments | – | – | – | – | – | – | – | – | – | – | – | – | – | – |
| Cc1cc(NC2CCCCC2)nc(-n2nc(C)cc2C)n1 [CyPPA] | alleviated fear memory impairments | performed equivalently to KET mice given VEH | 0.21 | rescue of the attention or learning deficit; also recorded: significantly better than that of VEH-treated KET mice; also recorded: rescued temporal memory and attention | 0.13 | impaired acquisition of the conditioned freezing response; also recorded: exhibited impaired freezing compared to SAL mice given VEH | 0.079 | no rescue of KET-induced impaired object memory | 0.191 | rescued object recognition memory; also recorded: performed significantly better than VEH-treated KET mice; also recorded: significantly better object recognition memory performance | 0.381 | impaired object memory; also recorded: impaired the encoding and or consolidation of object memory | 0.354 | 0.398 | improved object recognition memory; also recorded: partial, albeit significant, rescue of object recognition memory |
